Assay results as given in US20240269170A1, “Treatment of Inflammatory Conditions or Diseases” (Queen Mary University of London, priority 2021, published 2024).

Tested on: K/B×N serum induced arthritis in C57BL/6 mice
Test: Sustained K/B×N serum induced arthritis, transfer of monocytes from arthritic mice incubated with MCTR3
Format: in vivo, mouse
Method: (C-D) K/B×N serum (100 μL, i.p.) was administered to C57BL/6 mice on day 0, 2 and 9 to induce and prolong inflammatory arthritis and, on day 12, mice were treated i.v. with 2×10^6 monocytes isolated from arthritic mice and incubated with either vehicle (PBS+0.1% EtOH) or 1 nM MCTR3 for 90 min at 37° C. Disease course was monitored daily by assessing C) clinical scores and D) oedema. Results are mean±SEM. and expressed as percent change from day of treatment. n=9 per group from two distinct experiments. (E) On day 22 hind paws were harvested joints were fixed, sectioned, stained using H&E stain and leukocyte infiltration evaluated. Top and centre panels present representative images from each experimental group; bottom panel Quantitation of the scores in each of the group. Results are mean±SEM. n=8 mice per group. Statistical differences were evaluated using Mann-Whitney U test. IFP=intrapatellar fat, M=meniscus, TB=Tibia, PF=Pannus formation, arrows denote leukocyte infiltration. (F-G) Paws were harvested 10 days after treatment and lipid mediator profiles were determined using LC-MS/MS-based lipid mediator profiling and evaluated using PLS-DA. (F) scores plot with highlighted regions denoting the clusters representing cells from each group (G) VIP scores for top 15 mediators. Each dot in the score plot represents a separate mouse.
FIG. 4: Regulation of joint reparative pathways in mice receiving MCTR3-trained monocytes. K/B×N serum (100 μL, i.p.) was administered to C57BL/6 mice on day 0, 2 and 9 to induce and prolong inflammatory arthritis and, on day 12, mice were treated i.v. with 2×10^6 monocytes isolated from arthritic mice and incubated with either vehicle (PBS+0.1% EtOH) or 1 nM MCTR3 for 90 min. (A-C) On day 22 hind paws were harvested, fixed, and stained to evaluate A) proteoglycan content using Safranin-O staining; B) Col 2 and C) Col X expression was evaluated using immunofluorescence. Left panels present representative images from each experimental group, right panels provide a quantitative evaluation of the staining. Results are expressed as percent change vs Monocyte group. n=7-8 mice per group. Statistical differences were evaluated using Wilcoxon signed rank test. (D-I) Hind paws were also collected on day 22 to evaluate the expression of the indicated genes was evaluated using quantitative realtime PCR. Results are from n=5 mice per group. Statistical differences were evaluated using Mann Whitney-U test.
FIG. 5: MCTR3 reprograms the arthritic monocyte-derive macrophage transcriptome. A-B) Arthritis was induced and prolonged in C57BL/6 mice by administering 100 μL K/B×N serum i.p. on day 0, 2 and 9. Mice were treated on day 12 i.v. with 2×10^6 monocytes isolated from arthritic mice and incubated either with vehicle (PBS+0.1% DMSO) or 10 μM RG108, a DNMT inhibitor, for 15 min and then with a vehicle (PBS+0.1% EtOH) or 1 nM MCTR3 for 90 min (37° C.). Disease course was monitored daily by assessing A) clinical scores and B) oedema. Results are mean±SEM and expressed as percent change from day of treatment. n=10 mice per group. Statistical differences were evaluated using Two-way ANOVA. (C-E) K/B×N serum (100 μL, i.p.) was administered to mice on days 0, 2 and 9 to induce and prolong inflammatory arthritis. On day 12, mice were treated i.v. with 2×10^6 monocytes isolated from arthritic mice that were previously incubated with either vehicle (PBS+0.1% EtOH) or 1 nM MCTR3 for 90 min. Cells were isolated from paw joints on day 22, sorted for CD45^+ cells and single cell RNA sequencing was performed. […] Results are from n=4 mice per group. (F-G) Monocytes were isolated from human healthy volunteers, these cells were then incubated with GM-CSF (7 days, 37° C.) then with either Vehicle or MCTR3 (1 nM, 37° C.). Cells were lysed and the phosphoproteome determined using mass spectrometry. […]

[1] = 200 μg nor-NOHA i.p. daily for 10 days from day 12
[2] = 200 μg nor-NOHA i.p. daily, mice given MCTR3-reprogrammed monocytes

In the case of `N=C(NO)NCC[C@H](N)C(=O)O` [nor-NOHA, N^ω-hydroxy-nor-L-arginine], the “clinical scores in mice given MCTR3-reprogrammed monocytes” value [1] is reported as “increase”, the “oedema in mice given MCTR3-reprogrammed monocytes” value [1] is reported as “increase” and the “upregulation of Dbl in PKH67+ CD64+ cells” value [2] is reported as “reversed”. For the same compound, the “upregulation of TGF-β1 in PKH67+ CD64+ cells” value [2] was “reversed”.
